The test system of the assay is clock gene Bmall promoter in NIH3T3 cells. Put plainly: Bmall promoter luciferase reporter, influence on expression of circadian clock gene (Test Example 1). It counts as cell-based, mouse. The conditions noted are these: Example 1, 12.5 μM in medium, NIH3T3, vs ethanol control, FIG. 1. The protocol:
The circadian rhythm regulatory agents of Examples 1 to 3 (i.e., 1,3-dihydroxy-5-n-pentadecylbenzene, alkylresorcinol-containing ethanolic bran extract, and alkylresorcinol-containing ethanolic rye extract) were evaluated for the influence on expression of circadian clock gene in accordance with the following test method.
To prepare a recombination vector, the promoter regions of a clock gene Bmall (−97 to +27 regions including the RORE sequence and the transcription initiation site) were inserted into a luciferase luminescence vector containing a PEST sequence serving as a signal for rapid degradation of expressed proteins (pGL3-dLuc, from Promega). About 5×10^5 cells of mouse fibroblast cell line NIH3T3 were inoculated into a 35 mm diameter culture dish. […]
Screening of candidate substances was performed using the culture cells. […] Then, a test substance was added to a medium containing a luciferin, (a luminescence substrate of […]), and chemiluminescence by the reporter genes was measured in real-time while continuing the cell culture. […] As a control, ethanol, which is the solvent of the test substance, was added at the same timing, and the changes in amount of luminescence were compared. Luminescence was measured for one minute at 10 minute interval using AB-2550 Kronos Dia from ATTO Corp.
(In general: Reporter assays use an easily measured gene product as a stand-in for the process of interest.)

On to `CCCCCCCCCCCCCCCc1cc(O)cc(O)c1` [Example 1, 1,3-Dihydhroxy-5-n-pentadecylbenzene (C15:0)], for which the “circadian rhythm phase of Bmall expression” value is reported as “delays the circadian rhythm phase” and the “shortening of the cycle of Bmall expression rhythm” value amounted to 0.5 h.
